Test results: US6403576B1, “Antifungal and antiparasitic compounds” (priority 1998, dated 2002)
Values after ≈ are worked out from the molar mass of the structure shown. Read-outs that look alike come from different tables or passages of the source.

Assays:
[1] = tested on: Tritrichomonas foetus KV-1; assay: Trichomonad MIC assay, 96-well, 48 h; type: cell-based
Method: (§1) Trichomonad In Vitro and in Vivo Drug Screening Methods.(a) In Vitro: Several strains of T. vaginalis are maintained, covering the spectrum of metronidazole resistance: CDC85 (highly resistant); RU384, RU383, IR78 (moderately resistant); NYH286, RU284, RU393, C1-NIH (sensitive). These strains are routinely cultivated in a non-defined medium incorporating tryptose, yeast extract, maltose and supplemented with 10% horse serum.
(§2) In in vitro drug studies, plant extracts are tested using a 96-well plate assay as described by Meingassner et al., (1978, Antimicrob Agents Chemother 13, 1-3). This method uses only 200 ul of medium/well and thus uses very little plant extract. Results (in triplicate) are presented as “Minimal Inhibitory Concentration” (MIC) the lowest concentration completely blocking growth (Meingassner et al., 1978, supra). This method is also useful in comparing susceptibility of various strains (Meingassner et al., 1978, supra; Yarlett et al., 1987, Mol Biochem Parasitol 24, 255-261). […] Since vaginal O2 tensions are 1/20th to ¼th of atmospheric (Wagner et al., 1978, Fertil Steril 30, 50-53), it is more physiological to do drug sensitivity testing under conditions approaching this.
(§3) The trichomonad screen consists of two human pathogenic Trichomonas vaginalis strains and a livestock parasite Tritrichomonas foetus. The T. vaginalis isolates include a metronidazole sensitive isolate (C1-NIH: ATCC 30001) and a strain highly resistant to metronidazole (CDC-085: ATCC 50143). […] Table 4 details data from the initial group of 19 primary extracts. […] The results to Dec. 31, 1997 appear in Table 5.

[2] = tested on: Trichomonas vaginalis strain C1-NIH (ATCC #30001); assay: Trichomonad MIC assay, 96-well, 48 h; type: cell-based
Method: as §1, §2, §3

[3] = tested on: Trichomonas vaginalis CDC-085 (ATCC#50143); assay: Trichomonad MIC assay, 96-well, 48 h; type: cell-based
Method: as §1, §2, §3

[4] = tested on: J-774 A.1 macrophages; settings: 10 uM; not from mevalonate; cited from earlier work
[5] = 60 mg/day for 3 months; cited from earlier work
[6] = in vivo; cited from earlier work
[7] = tested on: Leishmania major promastigotes; settings: cited from earlier work
[8] = rats; cited from earlier work
[9] = cited from earlier work

Cc1ncc([N+](=O)[O-])n1CCO [Metronidazole]
MIC ([1]; Table 4, 48 hrs, read-out: MIC KV-1 48 hrs): 4 µg/mL (≈ 23.4 µM)
MIC ([1]; Table 5, new plant extracts, read-out: MIC KV1): 3 µg/mL (≈ 17.5 µM)
MIC ([2]; ATCC30001, Table 4, 48 hrs, read-out: MIC C1-HIH 48 hrs): 3 µg/mL (≈ 17.5 µM)
MIC ([2]; ATCC30001, Table 5, new plant extracts, read-out: MIC C1-NIH): 3 µg/mL (≈ 17.5 µM)
MIC ([3]; ATCC50143, Table 4, 48 hrs, metronidazole-resistant strain, read-out: MIC CDC-085 48 hrs): 400 µg/mL (≈ 2340 µM)
MIC ([3]; ATCC50143, Table 5, new plant extracts, read-out: MIC CDC-085): 400 µg/mL (≈ 2340 µM)

CC(C)=CCC/C(C)=C/C=C/C(C)=C/C=C/C(C)=C/C=C/C=C(C)/C=C/C=C(C)/C=C/C=C(\C)CCC=C(C)C [lycopene]
cholesterol synthesis inhibited from acetate [4]: 73%
decrease in plasma LDL cholesterol [5]: 14%

Nc1nc(N)nc(Nc2ccc([As]3SCC(CO)S3)cc2)n1 (stereo not shown) [Melarsoprol]
incidence of cerebral episodes [6]: 3-5%

Nc1ccc(S(=O)(=O)c2ccc(N)cc2)cc1 [Dapsone, 4,4′-diaminodiphenyl sulfone]
reversibility of inhibition by p-aminobenzoate (PABA) folate or thymidine [7]: not reversible

CC/C(=C(/c1ccc(OCCN(C)C)cc1)c1cccc(O)c1)c1ccccc1 [Droloxifene]
reduced total serum cholesterol compared to controls [8]: 65-70%

CC(=O)N1CCN(c2ccc(OCC3COC(Cn4ccnc4)(c4ccc(Cl)cc4Cl)O3)cc2)CC1 (stereo not shown) [ketoconazole]
decreased plasma cholesterol from pretreatment baseline ([9]; 200 mg/day): 15%
decreased plasma cholesterol from pretreatment baseline ([9]; 1200 mg/day): 27%
